Laboratory results reported in US20250369974A1, “METHOD FOR MONITORING AND PREVENTING CLINICALLY SIGNIFICANT KETONE LEVELS IN PATIENTS RECEIVING DICHLOROACETATE CO-ADMINISTERED WITH A CARBOHYDRATE RESTRICTED DIET” (SAOL INTERNATIONAL DEVELOPMENT LTD., priority 2024, published 2025).
Like-named read-outs stand apart in the source and are kept apart here.

Assays:
[1] = system: patients with Pyruvate Dehydrogenase Complex Deficiency (PDCD); assay: Plasma lactate levels in Phase III study of DCA in PDCD patients; format: in vivo, human
Protocol: (§1) A total of 30 (of the 34) patients in the Phase III study in PDCD patients had lab values that could be evaluated throughout the study. Of these 30, 24 were defined to be adherent to a ketogenic diet based on their BHB level at baseline to be >0.3 mM.
(§2) A double-blind period (Phase A) and an open label period (Phase B) was performed in patients 6 months through 17 years of age with Pyruvate Dehydrogenase Complex Deficiency (PDCD) (n=34). Patients receiving DCA were dose-stratified according to GSTZ1 genotype. DCA was dosed orally (oral, nasogastric tube, or gastric tube route) at either 12.5 mg/kg (fast metabolizers) or 6.25 mg/kg (slow metabolizers), every 12 hours. Twenty-seven (27) of 34 patients (79%), were fast metabolizers. […]
Plasma lactate levels were evaluated as a key biomarker in PDCD. Lactate is a universal marker of disease activity in PDCD, and its elevation is a direct result of the fundamental metabolic deficit. Patients with PDCD have chronically elevated levels of lactate due to decreased PDC activity. Lowering of plasma lactate with use of DCA is considered a biomarker of its activation of PDC.

[2] = system: pediatric patients with PDCD; assay: Adverse reaction data of Phase III study and open-label extension; format: in vivo, human
Protocol: In the Phase III study, the safety of DCA was assessed in 34 pediatric patients with PDCD aged 6 months to 17 years. Patients receiving DCA were dose-stratified post-randomization according to GSTZ1 genotype to mitigate risk of peripheral neuropathy. DCA was dosed at either 12.5 mg/kg or 6.25 mg/kg divided into two equal doses approximately 12 hours apart. The dose based on GSTZ1 genotyping was done at baseline before patients initiated therapy. As noted above, this Phase III controlled study was followed by an ongoing, open-label extension study, used to assess long term safety and survival outcomes.
In the open-label extension study, patients were treated for up to 3 years (median: 1.4 years) with DCA. The adverse events observed during the open-label phase of the study were similar to those observed in the double-blind portion of the study. During the open label portion of the trial there was a report of mild peripheral neuropathy in one patient who later withdrew from the study for a family relocation. This occurred after 18 months and was considered possibly drug related. DCA induced peripheral neuropathy has been identified as reversible upon therapy discontinuation.

[3] = system: patients with Pyruvate Dehydrogenase Complex Deficiency (PDCD); assay: Plasma BHB (ketone) levels in Phase III study of DCA in PDCD patients; format: in vivo, human
Protocol: as §1, §2

[4] = system: pediatric patients with PDCD; assay: Survival study of DCA-treated patients versus untreated natural history cohort; format: in vivo, human; conditions: primary endpoint, matched on age and sex; n=28 vs n=28; p=0.0273
Protocol: Efficacy was assessed in a second study by comparing overall survival in pediatric patients with PDCD treated with DCA (n=28) with an untreated natural history cohort of pediatric patients with genetically confirmed PDCD (n=28).

[5] = system: patients with Pyruvate Dehydrogenase Complex Deficiency (PDCD); assay: Phase III double-blind, placebo-controlled crossover study with open label period: ObsROmotor, GHA, seizures, observer survey; format: in vivo, human
Protocol: A double-blind period (Phase A) and an open label period (Phase B) was performed in patients 6 months through 17 years of age with Pyruvate Dehydrogenase Complex Deficiency (PDCD) (n=34). Patients receiving DCA were dose-stratified according to GSTZ1 genotype. DCA was dosed orally (oral, nasogastric tube, or gastric tube route) at either 12.5 mg/kg (fast metabolizers) or 6.25 mg/kg (slow metabolizers), every 12 hours. Twenty-seven (27) of 34 patients (79%), were fast metabolizers.
The drug product is a clear, colorless solution.
The primary efficacy outcome was assessed using an observer reported outcome that measures motor function, referred to as the ObsROmotor. The ObsROmotor is a daily observer reported survey that assesses weakness, incoordination, hypotonia (low muscle tone), hypertonia (rigidity, stiff muscle tone), and involuntary movements. Each domain was scored from 0 to 4, where 0 is no presence of the symptom, 1 is mild, 2 is moderate, 3 is severe and 4 extreme, with a total score ranging from 0 to 20.
PDCD is a heterogenous disease with neurologic, metabolic and structural abnormalities. An observer rated Global Health Assessment (GHA) was also used to assess the overall health of the patient in addition to ObsROmotor. GHA was measured each week to assess the prior 7 days using a 5-point scale (much better, better, no change, worse, much worse). GHA scores improved over time and the scores were correlated with ObsROmotor.

GSTZ1 haplotype carriers = conditions: cited from earlier work
[6] = Patient 01-001, DCA Open Label 1, keto ratio 4.0:1
[7] = Patient 01-001, DCA Open Label 2, keto ratio 4.0:1
[8] = Patient 01-001, DCA Open Label 3, keto ratio 4.0:1
[9] = Patient 01-001, DCA period, keto ratio 3.1:1
[10] = Patient 03-001, DCA Open Label 1, keto ratio Not Recorded
[11] = Patient 03-001, DCA Open Label 2, keto ratio 3.2:1
[12] = Patient 03-001, DCA Open Label 3, keto ratio 3.1:1
[13] = Patient 03-001, DCA period, keto ratio 4.0:1
[14] = Patient 07-003-S, DCA Open Label 1, keto ratio 0.7:1
[15] = Patient 07-003-S, DCA period, keto ratio 3.0:1
[16] = Phase III, all patients, p=0.006
[17] = of the 24 patients adherent to the ketogenic diet
[18] = severe patients (N=15), domain outside of motor function

## O=C(O)C(Cl)Cl [DCA, Dichloroacetate]
[1]; 9 patients without BHB increase
  drop in lactate: 11%
[1]; 9 patients without BHB increase, 51% not on DCA
  percentage of patients with normal lactate levels (2.0 mM or less) while on DCA: 71%
[1]; 15 patients with BHB increase
  drop in lactate levels while on DCA: 20%
[1]; 15 patients with BHB increase, 33% not on DCA
  percentage of patients with normal lactate levels (2.0 mM or less) while on DCA: 73%
[1]; [6]
  Lactate: 1.58 mM
[1]; [7]
  Lactate: 2.13 mM
[1]; [8]
  Lactate: 1.33 mM
[1]; [9]
  Lactate: 1.4 mM
[1]; [10]
  Lactate: 1.36 mM
[1]; [11]
  Lactate: 1.16 mM
[1]; [12]
  Lactate: 1.41 mM
[1]; [13]
  Lactate: 1.25 mM
[1]; [14]
  Lactate: 0.68 mM
[1]; [15]
  Lactate: 1.99 mM
[1]; [16]
  difference in plasma lactate, DCA vs. placebo: -0.477 mM
  reduction in plasma lactate levels, DCA vs. placebo: 21%
[1]; in both groups (with and without BHB increase)
  patients achieving lactate normalization while on DCA therapy: > 70%
[1]; vs. 42% on placebo, P=0.0114
  patients on DCA achieving normal levels (≤2mmol/L) of lactate: 66%
[2]; DCA (N = 34)
  Balance disorder: 1 (2.9) n (%)
  Bruxism: 0 n (%)
  Constipation: 1 (2.9) n (%)
  Diarrhea: 1 (2.9) n (%)
  Fatigue: 1 (2.9) n (%)
  Flatulence: 0 n (%)
  Gastrointestinal disorders (SOC): 2 (5.9) n (%)
  General disorders and administration site conditions (SOC): 1 (2.9) n (%)
  Insomnia: 0 n (%)
  Irritability: 0 n (%)
  Muscular weakness: 1 (2.9) n (%)
  Musculoskeletal and connective tissue disorders (SOC): 1 (2.9) n (%)
  Nervous system disorders (SOC): 1 (2.9) n (%)
  Psychiatric disorders (SOC): 0 n (%)
  Salivary hypersecretion: 0 n (%)
  Skin and subcutaneous tissue disorders (SOC): 1 (2.9) n (%)
  Syncope: 1 (2.9) n (%)
  Tremor: 1 (2.9) n (%)
  Urticaria: 1 (2.9) n (%)
[2]; Phase III, 34 pediatric patients
  deaths: no deaths
[2]; n=2 of 34 DCA-treated patients
  most commonly reported adverse reaction: gastrointestinal disorders: 5.9%
[2]; open label portion, after 18 months, considered possibly drug related
  patients with report of mild peripheral neuropathy: one
[3]; 9 patients without BHB increase, 2.04 mM not on DCA
  average BHB level while on DCA: 1.8 mM
[3]; 9 patients without BHB increase, 38% not on DCA
  measures that exceeded 3.0 mM BHB while on DCA: 24%
[3]; 15 patients that experienced an increase, 2.19 mM not on DCA
  average BHB level while on DCA: 3.27 mM
[3]; 15 patients that experienced an increase, 13% not on DCA
  measurements with clinically significant BHB (>3.0 mM) while on DCA: 62%
[3]; 15 patients that experienced an increase, on DCA vs not on DCA
  increase in average BHB level: 49%
[3]; [6]
  BHB: 3.19 mM
[3]; [7]
  BHB: 2.74 mM
[3]; [8]
  BHB: 4.08 mM
[3]; [9]
  BHB: 6.36 mM
[3]; [10]
  BHB: 4.41 mM
[3]; [11]
  BHB: 2.76 mM
[3]; [12]
  BHB: 2.06 mM
[3]; [13]
  BHB: 4.21 mM
[3]; [14]
  BHB: 2.38 mM
[3]; [15]
  BHB: 4.02 mM
[3]; group experiencing increases in BHB
  increase in the number of patients with BHB levels of 3.0 mM or higher: ~5 fold
[3]; group experiencing increases in BHB, 3% while not on DCA
  BHB levels greater than 4.0 while on DCA: 28%
[3]; [17]
  patients that did not experience a rise in ketone levels after administration of DCA: Nine
  patients with a rise in ketone levels after administration of DCA: 15
[4]
  multivariate risk reduction in the relative risk of death vs untreated patients: 99%
[5]; open label extension, of 34 patients
  patients maintaining stable disease or achieving clinically meaningful improvement (>20% reduction in ObsROmotor): 24
[5]; open-label office visits, 25 of the 26 respondents
  survey respondents noting improvement in cognition, verbal communication, mobility, and/or endurance: 96.2%
[5]; open-label portion
  observers rating patients with a GHA as better or much better: > 80%
[5]; patients with more severe impairment at baseline (N=15)
  patients showing improvement in motor function in at least one of the five domains: 93%
[5]; patients with more severe impairment at baseline (N=15), p=0.066
  improvement of motor function in the ObsROmotor scale vs. placebo: −1.12
[5]; severe patients (N=15)
  number of severe patients improving: hypertonia: 6
  number of severe patients improving: hypotonia: 8
  number of severe patients improving: incoordination: 6
  number of severe patients improving: involuntary movement: 6
  number of severe patients improving: weakness: 6
[5]; [18]
  number of severe patients improving: fatigue: 7
  number of severe patients improving: sleep: 8
GSTZ1 haplotype carriers; EGT carriers (fast metabolizers), 25 mg/kg/day
  risk of peripheral neuropathy adverse events: low risk
GSTZ1 haplotype carriers; EGT non-carriers (slow metabolizers), 12.5 mg/kg/day
  risk of peripheral neuropathy adverse events: experience the same
